In ChEMBL document CHEMBL1201862, “PubChem BioAssay data set” (2004):
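Method: 48-hour compound exposure of cells in 96-well plates, five concentrations, linear interpolation of endpoints. Here, GI50 denotes the concentration required for 50% inhibition of growth.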 Active and inactive are the calls of the source. No stated cut-off is given here; in the data, active = GI50 up to about 1.1 µM and inactive = higher.

How the values were obtained:
Assay in all cases: inhibition of tumour cell growth, NCI panel, 48 h
T47D = tested on: T47D
MCF7 = tested on: MCF7
SF-268 = tested on: SF-268
NCI-H23 = tested on: NCI-H23
HOP-92 = tested on: HOP-92
DU-145 = tested on: DU-145
EKVX = tested on: EKVX
NCI-H226 = tested on: NCI-H226
A549 = tested on: A549
UACC-257 = tested on: UACC-257
786-0 = tested on: 786-0
UO-31 = tested on: UO-31
PC-3 = tested on: PC-3
HL-60 = tested on: HL-60
SK-MEL-5 = tested on: SK-MEL-5
IGROV-1 = tested on: IGROV-1
NCI-H460 = tested on: NCI-H460
HOP-62 = tested on: HOP-62
SNB-75 = tested on: SNB-75
RXF 393 = tested on: RXF 393
SF-539 = tested on: SF-539
K562 = tested on: K562
KM12 = tested on: KM12
A498 = tested on: A498
RPMI-8226 = tested on: RPMI-8226
SW-620 = tested on: SW-620
U-251 = tested on: U-251
CCRF-CEM = tested on: CCRF-CEM
SK-MEL-2 = tested on: SK-MEL-2
HCT-116 = tested on: HCT-116
ACHN = tested on: ACHN
SK-OV-3 = tested on: SK-OV-3
NCI-H522 = tested on: NCI-H522
HT-29 = tested on: HT-29
Hs-578T = tested on: Hs-578T
MOLT-4 = tested on: MOLT-4
COLO 205 = tested on: COLO 205
Malme-3M = tested on: Malme-3M
LOX IMVI = tested on: LOX IMVI
BT-549 = tested on: BT-549
HCT-15 = tested on: HCT-15
MDA-MB-435 = tested on: MDA-MB-435
MDA-MB-231 = tested on: MDA-MB-231
SK-MEL-28 = tested on: SK-MEL-28
NCI/ADR-RES = tested on: NCI/ADR-RES
OVCAR-5 = tested on: OVCAR-5
SF-295 = tested on: SF-295
OVCAR-8 = tested on: OVCAR-8
OVCAR-4 = tested on: OVCAR-4
SN12C = tested on: SN12C
M14 = tested on: M14
SR = tested on: SR
SNB-19 = tested on: SNB-19
CAKI-1 = tested on: CAKI-1
HCC 2998 = tested on: HCC 2998
OVCAR-3 = tested on: OVCAR-3
UACC-62 = tested on: UACC-62
TK-10 = tested on: TK-10
MDA-N = tested on: MDA-N

`CC(=O)C(C)CCOC1(C)OCCC1C` (stereo unspecified) was tested, and the GI50 (T47D) was > 100 µM (inactive), the GI50 (MCF7) was > 100 µM (inactive) and the GI50 (SF-268) was > 100 µM (inactive). The GI50 (NCI-H23) was > 100 µM (inactive), the GI50 (HOP-92) was > 100 µM (inactive) and the GI50 (DU-145) was > 100 µM (inactive). The GI50 (EKVX) was > 100 µM (inactive), the GI50 (NCI-H226) was > 100 µM (inactive) and the GI50 (A549) was > 100 µM (inactive). The GI50 (UACC-257) was > 100 µM (inactive), the GI50 (786-0) was > 100 µM (inactive) and the GI50 (UO-31) was > 100 µM (inactive). The GI50 (PC-3) was > 100 µM (inactive), the GI50 (HL-60) was > 100 µM (inactive) and the GI50 (SK-MEL-5) was > 100 µM (inactive). For the same molecule, the GI50 (IGROV-1) was > 100 µM (inactive), the GI50 (NCI-H460) was > 100 µM (inactive) and the GI50 (HOP-62) was > 100 µM (inactive). The GI50 (SNB-75) was > 100 µM (inactive), the GI50 (RXF 393) was > 100 µM (inactive) and the GI50 (SF-539) was > 100 µM (inactive). For the same molecule, the GI50 (K562) was > 100 µM (inactive), the GI50 (KM12) was > 100 µM (inactive) and the GI50 (A498) was > 100 µM (inactive). For the same molecule, the GI50 (RPMI-8226) was > 100 µM (inactive), the GI50 (SW-620) was > 100 µM (inactive) and the GI50 (U-251) was > 100 µM (inactive). The GI50 (CCRF-CEM) was > 100 µM (inactive), the GI50 (SK-MEL-2) was > 100 µM (inactive) and the GI50 (HCT-116) was > 100 µM (inactive). The GI50 (ACHN) was > 100 µM (inactive), the GI50 (SK-OV-3) was > 100 µM (inactive) and the GI50 (NCI-H522) was > 100 µM (inactive). For the same molecule, the GI50 (HT-29) was > 100 µM (inactive), the GI50 (Hs-578T) was > 100 µM (inactive) and the GI50 (MOLT-4) was > 100 µM (inactive). The GI50 (COLO 205) was 65 µM (inactive), the GI50 (Malme-3M) was > 100 µM (inactive) and the GI50 (LOX IMVI) was > 100 µM (inactive). For the same molecule, the GI50 (BT-549) was > 100 µM (inactive), the GI50 (HCT-15) was greater than 100 µM and the GI50 (MDA-MB-435) was > 100 µM (inactive). The GI50 (MDA-MB-231) was > 100 µM (inactive), the GI50 (SK-MEL-28) was > 100 µM (inactive) and the GI50 (NCI/ADR-RES) was > 100 µM (inactive). For the same molecule, the GI50 (OVCAR-5) was > 100 µM (inactive), the GI50 (SF-295) was > 100 µM (inactive) and the GI50 (OVCAR-8) was > 100 µM (inactive). The GI50 (OVCAR-4) was > 100 µM (inactive), the GI50 (SN12C) was > 100 µM (inactive) and the GI50 (M14) was > 100 µM (inactive). The GI50 (SR) was > 100 µM (inactive), the GI50 (SNB-19) was > 100 µM (inactive) and the GI50 (CAKI-1) was > 100 µM (inactive). For the same molecule, the GI50 (HCC 2998) was > 100 µM (inactive), the GI50 (OVCAR-3) was > 100 µM (inactive) and the GI50 (UACC-62) was > 100 µM (inactive). For the same molecule, the GI50 (TK-10) was > 100 µM (inactive).
In the case of `[N-]=[N+]=Nc1c(Cl)c(=O)n(-c2ccccc2)c2ccccc12`, the GI50 (T47D) is reported as 11.8 µM (inactive), the GI50 (MCF7) is reported as 21.8 µM (inactive) and the GI50 (SF-268) is reported as 19.8 µM (inactive). For the same molecule, the GI50 (NCI-H23) was 19.6 µM (inactive), the GI50 (HOP-92) was 19.3 µM (inactive) and the GI50 (DU-145) was 29.2 µM (inactive). For the same molecule, the GI50 (A549) was 28.4 µM (inactive), the GI50 (UACC-257) was 24.2 µM (inactive) and the GI50 (786-0) was 18.3 µM (inactive). For the same molecule, the GI50 (UO-31) was 23.9 µM (inactive), the GI50 (PC-3) was 18.7 µM (inactive) and the GI50 (HL-60) was 40.3 µM (inactive). The GI50 (SK-MEL-5) was 3.15 µM (inactive), the GI50 (MDA-N) was 24.5 µM (inactive) and the GI50 (IGROV-1) was 15.6 µM (inactive). For the same molecule, the GI50 (NCI-H460) was 34.8 µM (inactive), the GI50 (HOP-62) was 24 µM (inactive) and the GI50 (SNB-75) was 18.5 µM (inactive). For the same molecule, the GI50 (RXF 393) was 16.4 µM (inactive), the GI50 (SF-539) was 22.3 µM (inactive) and the GI50 (K562) was 14.8 µM (inactive). For the same molecule, the GI50 (KM12) was 39.5 µM (inactive), the GI50 (RPMI-8226) was 34 µM (inactive) and the GI50 (SW-620) was 14.6 µM (inactive). For the same molecule, the GI50 (U-251) was > 10 µM (inactive), the GI50 (CCRF-CEM) was 11.9 µM (inactive) and the GI50 (SK-MEL-2) was 20.7 µM (inactive). The GI50 (HCT-116) was 17.8 µM (inactive), the GI50 (ACHN) was 21.5 µM (inactive) and the GI50 (SK-OV-3) was 37.2 µM (inactive). For the same molecule, the GI50 (HT-29) was 23.2 µM (inactive), the GI50 (Hs-578T) was 25.3 µM (inactive) and the GI50 (MOLT-4) was 8.43 µM (inactive). For the same molecule, the GI50 (COLO 205) was 25.8 µM (inactive), the GI50 (Malme-3M) was 22.2 µM (inactive) and the GI50 (LOX IMVI) was 14.9 µM (inactive). For the same molecule, the GI50 (BT-549) was 19.9 µM (inactive), the GI50 (HCT-15) was 20.7 µM and the GI50 (MDA-MB-435) was 19.1 µM (inactive). The GI50 (SK-MEL-28) was 17.6 µM (inactive), the GI50 (NCI/ADR-RES) was 24.2 µM (inactive) and the GI50 (OVCAR-5) was 24.3 µM (inactive). The GI50 (SF-295) was 30.7 µM (inactive), the GI50 (OVCAR-4) was 17.4 µM (inactive) and the GI50 (SN12C) was 22 µM (inactive). The GI50 (M14) was 16.6 µM (inactive), the GI50 (SR) was 31.4 µM (inactive) and the GI50 (SNB-19) was 28.9 µM (inactive). For the same molecule, the GI50 (CAKI-1) was 21.7 µM (inactive), the GI50 (HCC 2998) was 21.7 µM (inactive) and the GI50 (OVCAR-3) was 17.3 µM (inactive). The GI50 (UACC-62) was 15.1 µM (inactive) and the GI50 (TK-10) was > 10 µM (inactive).
